Measurements taken from PubChem BioAssay (NCI).
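Tested at 5 concentrations; 48 h exposure; 96-well plates; endpoints linearly interpolated, else capped at highest concentration. TGI: total growth inhibition.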

What was measured:
Assay in all cases: NCI-60 cell line screen, 48 h
[1] = tested on: LXFL 529 NSCLC
[2] = tested on: DLD-1 colon
[3] = tested on: XF 498 CNS
[4] = tested on: CAKI-1 renal
[5] = tested on: RXF-631 renal
[6] = tested on: DMS 273 small cell lung
[7] = tested on: SNB-19 CNS
[8] = tested on: HOP-18 NSCLC
[9] = tested on: HL-60(TB) leukemia
[10] = tested on: M19-MEL melanoma
[11] = tested on: DMS 114 small cell lung
[12] = tested on: SNB-78 CNS
[13] = tested on: KM20L2 colon
[14] = tested on: U251 CNS

| SMILES | TGI [1] | TGI [2] | TGI [3] | TGI [4] | TGI [5] | TGI [6] | TGI [7] | TGI [8] | TGI [9] | TGI [10] | TGI [11] | TGI [12] | TGI [13] | TGI [14] |
| --- | --- | --- | --- | --- | --- | --- | --- | --- | --- | --- | --- | --- | --- | --- |
| O=C1COc2cc3c(cc2N1)SCCC(=O)N3 | > 100 µM | > 100 µM | > 100 µM | > 100 µM | > 100 µM | > 100 µM | > 100 µM | > 100 µM | > 100 µM | > 100 µM | > 100 µM | – | – | – |
| COc1ccc(-c2cc(=O)c3ccc(F)cc3[nH]2)cc1 | > 100 µM | > 100 µM | > 100 µM | – | > 100 µM | – | > 100 µM | > 100 µM | > 100 µM | > 100 µM | > 100 µM | > 100 µM | > 100 µM | – |
| CC(=O)OC1CC2C(C)(C)OC(=O)CC(OC(C)=O)[C@]2(C)C2CCC3(C)C(=CCC3c3ccoc3)[C@]12C (stereo partly specified) | > 100 µM | 31.3 µM | 36 µM | > 100 µM | – | 41.1 µM | > 100 µM | – | > 100 µM | 52.3 µM | 96.4 µM | > 100 µM | > 100 µM | > 100 µM |
| O=C(/C=N/O)Nc1ccc(Cl)c(I)c1 | 42.1 µM | > 100 µM | 64.8 µM | 45.2 µM | – | 41.9 µM | 83.9 µM | – | 54.1 µM | 60.9 µM | 50 µM | – | > 100 µM | 39.4 µM |
| O=C(NN1C(=O)C(Cl)C1c1cccc(Cl)c1)c1ccccc1O (stereo unspecified) | > 100 µM | – | 86.7 µM | – | – | > 100 µM | > 100 µM | 80.7 µM | > 100 µM | > 100 µM | – | > 100 µM | – | > 100 µM |
| O=[N+]([O-])c1cc(Cl)ccc1S(=O)(=O)c1ccc(Cl)cc1[N+](=O)[O-] | 27.2 µM | 29.4 µM | – | 33.9 µM | – | 27.2 µM | 31.4 µM | 30.4 µM | 58 µM | 28.7 µM | 23.9 µM | 34.7 µM | 31.3 µM | 34.5 µM |
| C/C(=C(/C)c1cc[n+](C)cc1)c1cc[n+](C)cc1 | > 75 µM | > 75 µM | – | > 75 µM | – | > 75 µM | > 75 µM | > 75 µM | > 75 µM | – | 50.3 µM | > 75 µM | > 75 µM | > 75 µM |
| O=c1[nH]cc(COCC(O)CO)c(=O)[nH]1 (stereo unspecified) | > 100 µM | > 100 µM | > 100 µM | > 100 µM | > 100 µM | > 100 µM | > 100 µM | > 100 µM | > 100 µM | > 100 µM | > 100 µM | > 100 µM | > 100 µM | > 100 µM |
